Test results from patent US10409869B2, “(R)- and (S)-1-(3-(3-N,N-dimethylaminocarbonyl)phenoxyl-4-nitrophenyl)-1-ethyl-N,N'-bis (ethylene)phosphoramidate, compositions and methods for their use and preparation” (OBI Pharma, Inc., priority 2015, dated 2019).

Key:
[1] = test system: HepG2-GFP human hepatocellular carcinoma; assay: Orthotopic HepG2-GFP human hepatocellular carcinoma mouse model, tumor burden; assay type: in vivo, nude mice; conditions: at tested dosages
Protocol: Female athymic nude mice (6 weeks of age) were used in this study. The animals were purchased from Beijing HFK Bioscience, Co., Ltd and maintained in a High Efficiency Particulate Air Filter (HEPA) filtered environment with cages, food, and bedding sterilized by irradiation or autoclaving. A total of 32 nude mice were used for the study. HepG2-GFP human hepatocellular carcinoma cells (AntiCancer, Inc., San Diego, Calif.) were incubated with RPMI-1640 (Gibco-BRL, Life Technologies, Inc.), which contained 10% FBS. Cells were grown in a CO2 Water Jacketed Incubator (Forma Scientific) maintaining 37° C. and a 5% CO2/95% air atmosphere. Cell viability was determined by trypan blue exclusion analysis. Five female athymic nude mice were injected subcutaneously with a single dose of 5×10^6 HepG2-GFP cells. Tumors were harvested when their size reached 1 cm^3 and the tumor tissues were then cut into small fragments of 1 mm^3. Forty female nude mice were implanted orthotopically with a single piece of tumor fragment, which was derived from a subcutaneous tumor model of HepG2-GFP human hepatocellular carcinoma. The tumor tissue was orthotopically implanted in the right lobe of the liver in each mouse by SOI (Surgical Orthotopic Implantation). […]
During the period of the study, all of the experimental mice were checked daily for mortality or signs of morbidity. […] The body weights of the mice were measured twice weekly during the study period. […] Comparisons of body weights and tumor burdens in different groups were analyzed using the Student's t-test with an α=0.05 (two-sided). […]
The progressions of orthotopic HepG2-GFP hepatocellular carcinoma in different groups were monitored by real time imaging. […] Typical tumor images at the end of the study in each group and tumor growth curves derived from the signals of tumor fluorescence, which were analyzed using the Power Station software (INDEC Biosystems, CA, USA), are shown in FIG. 6 and FIG. 7, respectively
Tumor IR was calculated based on the final average tumor weights according to the formula: IR (%)=(1−treatment(t)/control(c))×100

[2] = Body weight and toxicity in the orthotopic HepG2-GFP mouse model; assay type: in vivo, nude mice; conditions: intra-peritoneal, low (2.5 mg/kg) or high (5 mg/kg) dose
AL7473 cells = assay: T-cell leukemia animal model, human CD45 FACS; assay type: in vivo, mouse
Protocol: Leukemic cells were prepared by thawing out ˜150×10^6 of AL7473 cells from LN2 (about 2-3 vials) and placing them into a 37° C. water bath rapidly. All of the cells were transferred into a 50 ml falcon tube with 40 ml pre-warmed complete medium. The cells were centrifuged at 1200 rpm for 5 min. The cells were re-suspended with 40 ml RPMI1640. The cells were then counted. The cells were centrifuged at 1200 rpm for 5 min. and re-suspended with ice cold PBS to 2 million cell per 100 ul PBS. 100 ul of saline containing 2×10^6 cells prepared above were used to inject into each mouse by IV. The FACS analysis was done for blood weekly during the experimental period by transferring samples into FACS tubes, adding human CD45 FITC and isotypes into corresponding tubes for all the samples and incubating the cells on ice for 30 min. in the dark. 2 ml of red blood cell lysing buffer was added to each tube and incubated on ice for another 30 min. in the dark. […] Samples were analyzed on a BD Calibur by using Cell Quest or Flowjo and the results were analyzed by using Prism 5.0. […]
Peripheral blood was collected weekly for human CD45 antibody FACS detected during treatment since the treatment start on Day 43 post cell inoculation. […] Blood, spleen and bone marrow of all mice were collected for human CD45 FACS detected. […]

C[C@H](OP(=O)(N1CC1)N1CC1)c1ccc([N+](=O)[O-])c(Oc2cccc(C(=O)N(C)C)c2)c1 (single isomer, unassigned) [TH3424]
inhibitory effect on orthotopic HepG2-GFP model [1]: very strong inhibitory effect
toxicity to the experimental mice [2]: no obvious toxicity
toxicity to the experimental mice ([2]; listed as TH2870-2): no obvious acute toxicity
percentages of human CD45+ leukemia cells in peripheral blood (AL7473 cells; after the second dosing, treatment groups 2-4 vs vehicle group 1, P<0.001): significantly lower than vehicle group
tumor burden (human CD45) in blood, spleen and bone marrow at termination (AL7473 cells; groups 2-4 vs group1, P<0.01, bone marrow in group2 P<0.05): significant differences
